Experimental findings from patent publication US12528782B2, “Prodrugs in the modulation of interleukin” (BRISTOL-MYERS SQUIBB COMPANY, priority 2019, dated 2026) are described below.

By AUC is commonly meant the area under the concentration-time curve, a measure of exposure. The Cmax is the peak of the concentration-time curve. Broadly, the Tmax is the time from dosing to the highest level.

This data set can be described thus: PK in rats after PO dosing of the prodrug of Example 1: circulating parent Compound I and prodrug. To be noted: for AUC / Cmax / Tmax: rat, in vivo, analyte = labelled substance. It counts as in vivo.
Where [1] appears, read: 150 mg/kg, Example 1 dosed PO at 150 mpk.
[2] abbreviates: 5 mg/kg, Example 1 dosed PO at 5 mpk.
Setting [3] is: 25 mg/kg, Example 1 dosed PO at 25 mpk.

In the case of `[2H]C([2H])([2H])NC(=O)c1cn(COP(=O)([O-])[O-])/c(=N/C(=O)C2CC2)cc1Nc1cccc(-c2nnn(C)n2)c1OC.[Na+].[Na+]` [Example 1], under “PO, 150 mpk dose”, the “circulating prodrug as % of parent” value was “less than 0.05%”. The “exposure to the prodrug (circulating prodrug following administration)” value (PO, therapeutic doses (5 and 25 mpk)) is “no exposure”. Moreover, under setting [1], the AUC is 0.33 ± 0.21 µM·h, the Cmax is 0.69 ± 0.24 µM and the time to peak (Tmax) was determined as 0.25 h.

For `[2H]C([2H])([2H])NC(=O)c1cnc(NC(=O)C2CC2)cc1Nc1cccc(-c2nnn(C)n2)c1OC` [Compound I], the “AUC Multiple+” value was 11X (Example 1 dosed PO at 5 mpk), 57X (Example 1 dosed PO at 25 mpk) and 473X (Example 1 dosed PO at 150 mpk). Also, the AUC under setting [2] worked out at 19.2 ± 1.7 µM·h, the AUC under setting [3] stood at 96.9 ± 13.2 µM·h and the AUC under setting [1] worked out at 804 ± 26.9 µM·h. Further, the Cmax was 4.91 ± 1.4 µM under setting [2], 13 ± 1.4 µM under setting [3] and 58.2 ± 5.7 µM under setting [1]. Further, the Tmax turned out to be 0.5 h under setting [2], 3 h under setting [3] and 3 h under setting [1].
